Measured values: patent publication US5047242A, “Azadirachtin derivative insecticides” (Native Plant Institute ("NPI"), priority 1987, dated 1991)
Converted amounts (≈) assume the structure as drawn. “Also recorded” adds a separate entry of the source. Read-outs that look alike come from different tables or passages of the source.

Columns and labels:
Heliothis virescens [1] = test: Artificial diet feeding bioassay, mortality and growth inhibition in first-instar larvae; format: in vivo, Heliothis virescens (tobacco budworm); conditions: for EC50 (concentration causing 50% growth inhibition): Table 1, first-instar Heliothis virescens larvae, parentheses = 95% confidence limits; for EC50 (concentration causing 50% growth inhibition) / EC50: artificial diet; for insecticidal activity (in words): Heliothis virescens feeding; for LC50: Heliothis virescens, po; for EC50: Table 5, larval growth reduced to 50% of control, first instar Heliothis virescens, 95% confidence limits
Description: The results of the growth inhibitory and lethal activities of azadirachtin and these 8 derivatives when fed in an artificial diet to Heliothis virescens larvae are shown in Table 1. Similar to the results of Morgan, E. D., in "Natural pesticides from the Neem tree (Azadirachta indica A. Juss), Schmutterer, H., et al., Eds., Proc. First International Neem Conference (Rottach-Egern, 1980), German Agency for Technical Corporation,Eschborn, Germany, 1982, pps. 43-52 (hereinafter "Morgan"), neither deacetylation nor hydrogenation of the carbon-carbon double bond of the dihydrofuran ring moiety of azadirachtin had any significant effect on activity of the compound against H. virescens.
Mortality and growth inhibition in first-instar Heliothis
virescens larvae fed azadirachtin and eight derivatives in an
artificial diet (I. Kubo and J. A. Klocke, In: Plant Resistance to
Insects (P. A. Helin, Ed.), ACS Symposium Series 208, American Chemical
Society, Washington, D.C. (1983), pp. 329-346.).^a
^b LC50 values are the concentrations (ppm) causing 50%
^c EC50 values are the concentrations (ppm) causing 50% growth
^d Numbers in parentheses are the 95% confidence limits determined
using the methods of Litchfield and Wilcoxon, J. Pharmacol. Exp. Ther.
An artificial diet feeding bioassay with neonate larvae of tobacco budworm (Heliothis virescens) and fall armyworm (Spodoptera frugiperda) was used as previously described (Kubo and Klocke, 1983) to detect insecticidal activities in the plant extracts to monitor fractionation, and to determine the potency of the isolated constituents and derivatives. Potency was determined either as the effective concentration (EC50) of added material that is necessary to reduce larval growth to 50% of the control values or as the lethal concentration (LC50) of added material that is necessary to kill 50% of the treated larvae. EC50 and LC50 values were determined from log probit paper and analyzed statistically by the method of Litchfield and Wilcoxon, supra.

Heliothis virescens [2] = test: Oral injection of fifth-instar larvae, pupal and adult development (non-irradiated compounds); format: in vivo; conditions: for Adults (%) / Adults Deformed (%) / Pupae (%) / Unsuccessful Larvae-Pupae (%) / Unsuccessful Pupae-Adult (%): % of larvae; for inhibition of pupation (in words): 1.0 μg per os
Description: (§1) Individual larvae were injected per os on the first day of the fifth instar with 1.0 μg of either irradiated or non-irradiated compounds dissolved in 1.0 μl of 75% aqueous ethanol.
Table 2: Successful and unsuccessful pupal and adult development of
fifthinstar Heliothis Virescens larvae injected orally with 1.0 microgram
of either azadirachtin, 3deacetylazadirachtin, 22,23dihydroazadirachtin,
or 2',3',22,23tetrahydroazadirachtin.

Heliothis virescens [3] = test: Relative activity of UV-irradiated compounds in inhibiting pupal development of fifth-instar larvae; format: in vivo; conditions: for Relative activity, inhibition of pupal development: relative to non-irradiated counterpart
Description: (§2) Azadirachtin, 3-deacetylazadirachtin, 22,23-dihydroazadirachtin, and 2',3',22,23-tetrahydroazadirachtin (1.0 mg/ml absolute ethanol) were placed individually in capped quartz NMR tubes (5×180 mm) and were irradiated with two UV germicidal lights (GE, G30T8, 200-280 nm, 30W) 1.8 m from the source at room temperature for up to 400 h. The controls were identical samples protected from exposure to UV radiation by wrapping with aluminum foil. At selected time intervals, aliquots from both the controls (non-irradiated) and irradiated samples were removed for high-performance liquid chromatography (HPLC) analysis and bioassay (vide infra).
as §1
Table 3: Relative activity of azadirachtin, 3deacetylaza-dirachtin,
22,23dihydroazadirachtin, and 2',3',22,23tetrahydroazadirachtin, all of
which had been exposed for 15, 30, 90, 200, and 400 hours to UV radiation
inhibiting the pupal development of fifthinstar Heliothis virescens
(§3) larvae. Relative activity is defined as the percentage of larvae injected

[4] = UV stability in ethanol by reversed phase HPLC; format: physicochemical; conditions: for UV lability (in words): UV irradiation, HPLC
Description: Stability of Azadirachtin derivatives was determined as follows:
as §2
Analytical reversed phase HPLC was performed on a phenyl (5μm) column run isocratically with acetonitrile-water (3:7) (Yamasaki et al.) Peaks were detected at 214 nm. The irradiated samples were compared with their corresponding non-UV-irradiated controls by measuring the height of the peak eluting at the appropriate Rt for each irradiated compound relative to each one's non-irradiated control. Results are expressed as the percent of the initial sample concentration remaining relative to the control. Each time point was done in at least triplicate fashion.

Heliothis virescens [5] = test: Relative activity of UV-irradiated compounds in inhibiting adult development of fifth-instar larvae; format: in vivo; conditions: for Relative activity, inhibition of adult development: relative to non-irradiated counterpart
Description: as §2, §1
Table 4: Relative activity of azadirachtin, 3deacetylaza-dirachtin,
22,23dihydroazadirachtin, 2',3',22,23tetrahydroaza-dirachtin, all of whic
had been exposed for 15, 30, 90, 200, and 400 hours to UV radiation, in
inhibiting the adult development of fifthinstar Heliothis virescens
as §3
relative to the percentage injected with its nonirradiated counterpart

[6] = 1.0 microgram injected orally, fifth-instar, non-irradiated
[7] = read-out: LC50 (concentration causing 50% mortality)

## COC(=O)C1(O)OCC23C(O)CC(OC(C)=O)C4(C(=O)OC)COC(C42)C(O)C(C)(C24OC2(C)C2CC4OC4OCCC42O)C13 (stereo not drawn) [1-detigloyl-22,23-dihydroazadirachtin]
Heliothis virescens [1]
  EC50 (concentration causing 50% growth inhibition): 0.59 (0.30-1.14) ppm

## CCC(C)C(=O)OC1CC(OC(C)=O)C2(C(=O)OC)COC3C2C12COC(O)(C(=O)OC)C2C(C)(C12OC1(C)C1CC2OC2OCCC21O)C3O (stereo not drawn) [2',3',22,23-tetrahydroazadirachtin]
Heliothis virescens [2]; [6]
  Number Adults: 0 Number
  Number Adults Deformed: 0 Number
  Unsuccessful Larvae-Pupae (number): 6 Number
  Unsuccessful Pupae-Adult (number): 1 Number
Heliothis virescens [2]; 1.0 microgram injected orally
  Adults (%): 0%
  Adults Deformed (%): 0%
  Pupae (%): 7.4%
  Unsuccessful Larvae-Pupae (%): 4.4%
  Unsuccessful Pupae-Adult (%): 0.7%
Heliothis virescens [2]; non-irradiated
  inhibition of pupation (in words): equally effective
Heliothis virescens [1]
  insecticidal activity (in words): full activity; also recorded: fully active
  EC50 (concentration causing 50% growth inhibition): 0.08 (0.05-0.13) ppm
Heliothis virescens [3]; 15 h UV exposure
  Relative activity, inhibition of pupal development: 99.4%
Heliothis virescens [3]; 30 h UV exposure
  Relative activity, inhibition of pupal development: 103.7%
Heliothis virescens [3]; 90 h UV exposure
  Relative activity, inhibition of pupal development: 99.7%
Heliothis virescens [3]; 200 h UV
  ability to inhibit pupation after UV (in words): most active in inhibiting pupation
Heliothis virescens [3]; 200 h UV exposure
  Relative activity, inhibition of pupal development: 108.0%
Heliothis virescens [3]; 400 h UV
  ability to inhibit pupation after UV (in words): some loss in activity; also recorded: still more active than the other test compounds
Heliothis virescens [3]; 400 h UV exposure
  Relative activity, inhibition of pupal development: 69.1%
[4]
  degradation following 200 h of exposure to UV radiation (in words): no degradation
  UV lability (in words): not UV-labile
Heliothis virescens [5]; 15 h UV exposure
  Relative activity, inhibition of adult development: 100.0%
Heliothis virescens [5]; 30 h UV exposure
  Relative activity, inhibition of adult development: 100.0%
Heliothis virescens [5]; 90 h UV exposure
  Relative activity, inhibition of adult development: 100.0%
Heliothis virescens [5]; 200 h UV exposure
  Relative activity, inhibition of adult development: 100.0%
Heliothis virescens [5]; 400 h UV
  ability to inhibit larvae from reaching the adult stage after UV (in words): fully active
Heliothis virescens [5]; 400 h UV exposure
  Relative activity, inhibition of adult development: 100.0%

## COC(=O)C1(O)OCC23C(OC(=O)C(C)(O)C(C)O)CC(OC(C)=O)C4(C(=O)OC)COC(C42)C(O)C(C)(C24OC2(C)C2CC4OC4OCCC42O)C13 (stereo not drawn) [2',3'-dihydroxy-2',3',22,23-tetrahydroazadirachtin]
Heliothis virescens [1]
  EC50 (concentration causing 50% growth inhibition): 3.80 (1.95-7.41) ppm

## C/C=C(\C)C(=O)OC1CC(O)C2(C(=O)OC)COC3C2C12COC(O)(C(=O)OC)C2C(C)(C12OC1(C)C1CC2OC2OC=CC21O)C3O (stereo not drawn) [3-deacetylazadirachtin]
Heliothis virescens [2]; [6]
  Number Adults: 10 Number
  Number Adults Deformed: 10 Number
  Number Pupae: 56 Number
  Unsuccessful Larvae-Pupae (number): 13 Number
  Unsuccessful Pupae-Adult (number): 4 Number
Heliothis virescens [2]; 1.0 microgram injected orally
  Adults (%): 5.9%
  Adults Deformed (%): 5.9%
  Pupae (%): 33.1%
  Unsuccessful Larvae-Pupae (%): 7.7%
  Unsuccessful Pupae-Adult (%): 2.4%
Heliothis virescens [2]; non-irradiated
  inhibition of pupation (in words): less effective
Heliothis virescens [1]
  EC50 (concentration causing 50% growth inhibition): 0.09 (0.05-0.17) ppm
Heliothis virescens [3]; 15 h UV exposure
  Relative activity, inhibition of pupal development: 115.2%
Heliothis virescens [3]; 30 h UV exposure
  Relative activity, inhibition of pupal development: 135.0%
Heliothis virescens [3]; 90 h UV
  activity retained after 90 h of exposure to UV radiation (in words): retained full activity
Heliothis virescens [3]; 90 h UV exposure
  Relative activity, inhibition of pupal development: 139.5%
Heliothis virescens [3]; 200 h UV
  ability to inhibit pupation after UV (in words): did decline
Heliothis virescens [3]; 200 h UV exposure
  Relative activity, inhibition of pupal development: 86.8%
Heliothis virescens [3]; 400 h UV
  ability to inhibit pupation after UV (in words): even greater decline
  activity retained after 400 h of exposure to UV radiation: approximately 50%
Heliothis virescens [3]; 400 h UV exposure
  Relative activity, inhibition of pupal development: 41.0%
Heliothis virescens [3]; up to 90 h UV
  ability to inhibit pupation after UV (in words): not appreciably reduced
[4]
  degradation following 400 h of exposure to UV radiation (in words): none of the three compounds remained in their original state
  kinetics of UV degradation (in words): first-order reaction
  UV lability (in words): UV-labile
Heliothis virescens [5]; 15 h UV exposure
  Relative activity, inhibition of adult development: 103.2%
Heliothis virescens [5]; 30 h UV exposure
  Relative activity, inhibition of adult development: 106.3%
Heliothis virescens [5]; 90 h UV exposure
  Relative activity, inhibition of adult development: 106.3%
Heliothis virescens [5]; 200 h UV
  ability to inhibit larvae from reaching the adult stage after UV (in words): remained substantially unchanged until 400 h of irradiation
Heliothis virescens [5]; 200 h UV exposure
  Relative activity, inhibition of adult development: 96.0%
Heliothis virescens [5]; 400 h UV exposure
  Relative activity, inhibition of adult development: 72.3%

## C/C=C(\C)C(=O)OC1CC(OC(C)=O)C2(C(=O)OC)COC3C2C12COC(OC(=O)OC)(C(=O)OC)C2C(C)(C12OC1(C)C1CC2OC2OCCC21OC(=O)OC)C3O (stereo not drawn) [11,20-O, O-dicarbomethoxy-22,23-dihydroazadirachtin]
Heliothis virescens [1]; [7]
  LC50: 90 µg/mL (≈ 107 µM)
Heliothis virescens [1]
  EC50 (concentration causing 50% growth inhibition): 29.0 (20.3-41.5) ppm

## C/C=C(\C)C(=O)OC1CC(OC(C)=O)C2(C(=O)OC)COC3C2C12COC(OC(C)=O)(C(=O)OC)C2C(C)(C12OC1(C)C1CC2OC2OC=CC21O)C3O (stereo not drawn) [11-O-acetylazadirachtin]
Heliothis virescens [1]; [7]
  LC50: 0.95 µg/mL (≈ 1.25 µM)
Heliothis virescens [1]
  EC50 (concentration causing 50% growth inhibition): 0.18 (0.08-0.40) ppm

## C/C=C(\C)C(=O)OC1CC(OC(C)=O)C2(C(=O)OC)COC3C2C12COC(OC)(C(=O)OC)C2C(C)(C12OC1(C)C1CC2OC2OC=CC21O)C3O (stereo not drawn) [11-O-methylazadirachtin]
Heliothis virescens [1]; [7]
  LC50: 25 µg/mL (≈ 34 µM)
Heliothis virescens [1]
  EC50 (concentration causing 50% growth inhibition): 5.00 (1.54-16.25) ppm

## CC(=O)C1C2(CO)C(OC(=O)/C=C/c3ccccc3)CC(O)C3(C)COC(C32)C(O)C1(C)C12OC1(C)C1CC2OC2OC=CC21O (stereo not drawn) [Compound 10, 1-cinnamoylmelianolone]
Heliothis virescens [1]
  insecticidal activity (in words): approximately half that of azadirachtin
  LC50: 1.5 µg/mL (≈ 2.35 µM)
  EC50: 0.12 ppm

## CC(=O)OC1CC(OC(=O)/C=C/c2ccccc2)C2(CO)C3C(OCC13C)C(O)C(C)(C13OC1(C)C1CC3OC3OC=CC31O)C2C(C)=O (stereo not drawn) [Compound 12, 1-cinnamoyl-3-0-acetylmelianolone]
Heliothis virescens [1]
  insecticidal activity (in words): approximately half that of azadirachtin
  LC50: 1.5 µg/mL (≈ 2.2 µM)
  EC50: 0.15 ppm

## CC(=O)OCC12C(OC(=O)/C=C/c3ccccc3)CC(OC(C)=O)C3(C)COC(C31)C(O)C(C)(C13OC1(C)C1CC3OC3OC=CC31O)C2C(C)=O (stereo not drawn) [Compound 13, 1-cinnamoyl-3,19-0,0-diacetylmelianolone]
Heliothis virescens [1]
  insecticidal activity (in words): approximately half that of azadirachtin
  LC50: 1.5 µg/mL (≈ 2.08 µM)
  EC50: 0.12 ppm

## CC(=O)C1C2(CO)C(O)CC(O)C3(C)COC(C32)C(O)C1(C)C12OC1(C)C1CC2OC2OC=CC21O (stereo not drawn) [Compound 14, decinnamoylmelianolone]
Heliothis virescens [1]
  insecticidal activity (in words): did not show good activity
  LC50: 10 µg/mL (≈ 19.7 µM)
  EC50: 3.20 ppm
